# Measured values reported in US20070082880A1 (priority 2005, published 2007).
# Structures can show the parent of a compound that is named as a salt.
# What was measured:
# [1] = biological target: T1, human PKCθ full length enzyme (Homo sapiens, UniProt Q04759); assay: PKCθ IMAP Assay; format: biochemical; details: average value when one or more samples were tested; ATP 6 uM, PKCθ 1 nM
# T1 construct: human PKCθ full length enzyme (Panvera Catalog No. P2996); purchased Panvera P2996
# Outline: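 Full-length human PKCθ (1 nM final) with 6 uM ATP and 100 nM 5FAM-labelled peptide, 5% DMSO, 3.0 mM DTT in reaction buffer. 25 min at room temperature; IMAP bead binding 20 min, fluorescence polarization read. Compounds 2:1 serially diluted; no-ATP and no-enzyme wells as controls.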
# PKCθ = PKCθ (Homo sapiens, UniProt Q04759); assay: PKCθ Scintiplate Assay; format: biochemical; details: average value when one or more samples were tested
# Chain of PKCθ (Q04759 362-706 limits assumed): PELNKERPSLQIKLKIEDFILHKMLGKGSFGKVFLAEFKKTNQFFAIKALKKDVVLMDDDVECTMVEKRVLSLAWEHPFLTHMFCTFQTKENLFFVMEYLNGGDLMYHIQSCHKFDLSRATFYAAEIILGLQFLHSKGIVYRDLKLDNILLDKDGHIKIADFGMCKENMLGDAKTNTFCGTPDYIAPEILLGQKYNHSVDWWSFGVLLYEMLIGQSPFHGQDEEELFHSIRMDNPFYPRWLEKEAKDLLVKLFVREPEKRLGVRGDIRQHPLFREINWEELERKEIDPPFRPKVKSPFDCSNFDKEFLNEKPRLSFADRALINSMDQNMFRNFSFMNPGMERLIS
# Description: This assay detects the phosphorylation of a biotinylated substrate by kinase utilizing radiolabeled ATP (ATP γ P33). The enzyme is either recombinant full length PKCθ (Panvera, P2996) or the purified recombinant active kinase domain of full length PKCθ (amino acids 362-706). The substrate in this assay is a biotinylated peptide with a sequence of biotin-[…]-CONH2. The assay buffer is composed of 100 mM Hepes, pH7.5, 2 mM MgCl2, 20 mM β-glycerophosphate and 0.008% TritonX 100. A reaction mixture of ATP, ATP γ P33 (PerkinElmer), DTT, lipid activator, and the enzyme is prepared in the assay buffer and added to a 96 well polypropylene plate. The compound (diluted in DMSO in a separate 96-well polypropylene plate) is added to the reaction mixture and incubated at room temperature. Following the incubation, the peptide substrate is added to the reaction mixture to initiate the enzymatic reaction. The reaction is terminated with the addition of a stop solution (10 mM EDTA, 0.2% TritonX100, and 100 mM NaHPO4) and transferred from the assay plate to a washed streptavidin-coated 96 well scintiplate (PerkinElmer). The scintiplate is incubated at room temperature, washed in PBS with 0.1% TritonX 100, and counted in the 1450 Microbeta Trilux (Wallac, Version 2.60). Counts are recorded for each well as corrected counts per minute (CCPM). The counts are considered corrected because they are adjusted according to a P33 normalization protocol, which corrects for efficiency and background differences between the instrument detectors (software version 4.40.01).
# T1 sequence (Q04759 whole entry): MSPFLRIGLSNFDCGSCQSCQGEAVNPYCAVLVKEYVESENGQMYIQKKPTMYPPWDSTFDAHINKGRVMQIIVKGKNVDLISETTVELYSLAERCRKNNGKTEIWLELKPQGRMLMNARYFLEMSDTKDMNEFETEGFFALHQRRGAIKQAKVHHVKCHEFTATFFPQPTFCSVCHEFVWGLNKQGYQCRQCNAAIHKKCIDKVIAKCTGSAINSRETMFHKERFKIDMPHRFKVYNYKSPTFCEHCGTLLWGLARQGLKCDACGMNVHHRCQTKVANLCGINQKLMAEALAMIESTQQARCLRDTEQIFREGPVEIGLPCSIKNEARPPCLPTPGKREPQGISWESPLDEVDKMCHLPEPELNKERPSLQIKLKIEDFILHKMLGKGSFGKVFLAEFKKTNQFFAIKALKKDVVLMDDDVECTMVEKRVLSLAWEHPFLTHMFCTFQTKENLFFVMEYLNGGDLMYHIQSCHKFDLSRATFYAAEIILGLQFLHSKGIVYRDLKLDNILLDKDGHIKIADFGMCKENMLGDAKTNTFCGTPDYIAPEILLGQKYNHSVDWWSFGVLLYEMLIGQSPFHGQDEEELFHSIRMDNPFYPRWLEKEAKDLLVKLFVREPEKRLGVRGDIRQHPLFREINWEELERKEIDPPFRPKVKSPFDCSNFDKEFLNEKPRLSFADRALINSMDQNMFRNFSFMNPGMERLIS
IC50 [1],IC50 (PKCθ),Structure (SMILES)
140 nM,80 nM,"N#Cc1cnc2sc(-c3ccc(CNCCO)cc3)cc2c1Nc1ccc2[nH]ccc2c1 [Compound 106, 2-(4-{[(2-hydroxyethyl)amino]methyl}phenyl)-4-(1H-indol-5-ylamino)thieno[2,3-b]pyridine-5-carbonitrile]"
5600 nM,> 3300 nM,"N#Cc1cnc2sc(-c3ccccc3)cc2c1Nc1ccc2cc[nH]c2c1 [Compound 116, 4-(1H-indol-6-ylamino)-2-phenylthieno[2,3-b] pyridine-5-carbonitrile hydrochloride]"
60 nM,28 nM,"Cc1c(Nc2c(C#N)cnc3sc(-c4ccccc4)cc23)ccc2[nH]ccc12 [Compound 117, 4-[(4-methyl-1H-indol-5-yl)amino]-2-phenylthieno[2,3-b]pyridine-5-carbonitrile]"
1900 nM,2700 nM,"Cc1cc2cc(Nc3c(C#N)cnc4sc(-c5ccccc5)cc34)ccc2[nH]1 [Compound 118, 4-[(2-methyl-1H-indol-5-yl)amino]-2-phenylthieno[2,3-b]pyridine-5-carbonitrile]"
> 100000 nM,> 60000 nM,"N#Cc1cnc2sc(-c3ccccc3)cc2c1NC(=O)c1ccc2[nH]ccc2c1 [Compound 129, N-(5-cyano-2-phenylthieno[2,3-b]pyridin-4-yl)-1H-indole-5-carboxamide]"
1400 nM,800 nM,"Cc1c[nH]c2ccc(Nc3c(C#N)cnc4sc(-c5ccccc5)cc34)cc12 [Compound 133, 4-[(3-methyl-1H-indol-5-yl)amino]-2-phenylthieno[2,3-b]pyridine-5-carbonitrile]"
,> 200000 nM,"Cn1ccc2cc(Nc3c(C#N)cnc4sc(-c5ccccc5)cc34)ccc21 [Compound 134, 4-[(1-methyl-1H-indol-5-yl)amino]-2-phenylthieno[2,3-b]pyridine-5-carbonitrile]"
,190 nM,"N#Cc1cnc2sc(-c3ccc(CN4CCOCC4)cc3)cc2c1Nc1cccc2[nH]ccc12 [Compound 138, 4-(1H-indol-4-ylamino)-2-[4-(morpholin-4-ylmethyl)phenyl]thieno[2,3-b]pyridine-5-carbonitrile]"
40 nM,41 nM,"CN(C)Cc1cccc(-c2cc3c(Nc4cccc5[nH]ccc45)c(C#N)cnc3s2)c1 [Compound 141, 2-{3-[(dimethylamino)methyl]phenyl}-4-(1H-indol-4-ylamino)thieno[2,3-b]pyridine-5-carbonitrile]"
240 nM,180 nM,"CN1CCN(Cc2ccccc2-c2cc3c(Nc4cccc5[nH]ccc45)c(C#N)cnc3s2)CC1 [Compound 143, 4-(1H-indol-4-ylamino)-2-{2-[(4-methylpiperazin-1-yl)methyl]phenyl}thieno[2,3-b]pyridine-5-carbonitrile]"
,90 nM,"CN1CCN(Cc2cccc(-c3cc4c(Nc5ccc6[nH]ccc6c5)c(C#N)cnc4s3)c2)CC1 [Compound 145, 4-(1H-indol-5-ylamino)-2-{3-[(4-methylpiperazin-1-yl)methyl]phenyl}thieno[2,3-b]pyridine-5-carbonitrile]"
75 nM,43 nM,"CN(C)Cc1cccc(-c2cc3c(Nc4ccc5[nH]ccc5c4)c(C#N)cnc3s2)c1 [Compound 147, 2-{3-[(dimethylamino)methyl]phenyl}-4-(1H-indol-5-ylamino)thieno[2,3-b]pyridine-5-carbonitrile]"
73 nM,60 nM,"N#Cc1cnc2sc(-c3cccc(CN4CCN(CCO)CC4)c3)cc2c1Nc1ccc2[nH]ccc2c1 [Compound 148, 2-(3-{[4-(2-hydroxyethyl)piperazin-1-yl]methyl}phenyl)-4-(1H-indol-5-ylamino)thieno[2,3-b]pyridine-5-carbonitrile]"
30 nM,13 nM,"N#Cc1cnc2sc(-c3cccc(CNCCO)c3)cc2c1Nc1ccc2[nH]ccc2c1 [Compound 149, 2-(3-{[(2-hydroxyethyl)amino]methyl}phenyl)-4-(1H-indol-5-ylamino)thieno[2,3-b]pyridine-5-carbonitrile]"
160 nM,41 nM,"N#Cc1cnc2sc(-c3cccc(CN4CCN(CCN5CCOCC5)CC4)c3)cc2c1Nc1ccc2[nH]ccc2c1 [Compound 150, 4-(1H-indol-5-ylamino)-2-(3-{[4-(2-morpholin-4-ylethyl)piperazin-1-yl]methyl}phenyl)thieno[2,3-b]pyridine-5-carbonitrile]"
77 nM,88 nM,"N#Cc1cnc2sc(-c3cccc(CN(CCO)CCO)c3)cc2c1Nc1ccc2[nH]ccc2c1 [Compound 151, 2-(3-{[bis(2-hydroxyethyl)amino]methyl}phenyl)-4-(1H-indol-5-ylamino)thieno[2,3-b]pyridine-5-carbonitrile]"
,310 nM,"N#Cc1cnc2sc(-c3cccc(CN4CCN(CCc5ccccc5)CC4)c3)cc2c1Nc1ccc2[nH]ccc2c1 [Compound 152, 4-(1H-indol-5-ylamino)-2-(3-{[4-(2-phenylethyl)piperazin-1-yl]methyl}phenyl)thieno[2,3-b]pyridine-5-carbonitrile]"
1600 nM,290 nM,"N#Cc1cnc2sc(-c3ccccc3CN3CCC(O)CC3)cc2c1Nc1ccc2[nH]ccc2c1 [Compound 186, 2-{2-[(4-hydroxypiperidin-1-yl)methyl]phenyl}-4-(1H-indol-5-ylamino)thieno [2,3-b]pyridine-5-carbonitrile]"
8 nM,4.5 nM,"Cc1c(Nc2c(C#N)cnc3sc(-c4cccc(CN(C)C)c4)cc23)ccc2[nH]ccc12 [Compound 187, 2-{3-[(dimethylamino)methyl]phenyl}-4-[(4-methyl-1H-indol-5-yl)amino]thieno[2,3-b]pyridine-5-carbonitrile]"
,2100 nM,"N#Cc1cnc2sc(-c3ccc(N4CCOCC4)cc3)cc2c1Nc1ccc2[nH]ccc2c1 [Compound 189, 4-(1H-indol-5-ylamino)-2-(4-morpholin-4-ylphenyl)thieno[2,3-b]pyridine-5-carbonitrile]"
,190 nM,"CCN1CCN(CC/C=C/c2cc3c(Nc4ccc5[nH]ccc5c4)c(C#N)cnc3s2)CC1 [Compound 190, 2-[(1E)-4-(4-ethylpiperazin-1-yl)but-1-en-1-yl]-4-(1H-indol-5-ylamino)thieno[2,3-b]pyridine-5-carbonitrile]"
,45 nM,"CN(C)CCc1ccc(-c2cc3c(Nc4ccc5[nH]ccc5c4)c(C#N)cnc3s2)cc1 [Compound 192, 2-{4-[2-(dimethylamino)ethyl]phenyl}-4-(1H-indol-5-ylamino)thieno[2,3-b] pyridine-5-carbonitrile]"
180 nM,110 nM,"CN(C)Cc1ccc(-c2cc3c(Nc4ccc5[nH]ccc5c4)c(C#N)cnc3s2)nc1 [Compound 204, 2-{5-[(dimethylamino)methyl]pyridin-2-yl}-4-(1H-indol-5-ylamino)thieno[2,3-b] pyridine-5-carbonitrile]"
,180 nM,"Cn1cncc1-c1cc2c(Nc3ccc4[nH]ccc4c3)c(C#N)cnc2s1 [Compound 205, 4-(1H-indol-5-ylamino)-2-(1-methyl-1H-imidazol-5-yl)thieno[2,3-b]pyridine-5-carbonitrile]"
,580 nM,CN1CCN(Cc2ncc(-c3cc4c(Nc5ccc6[nH]ccc6c5)c(C#N)cnc4s3)n2C)CC1 [Compound 210]
,500 nM,"N#Cc1cnc2sc(C#Cc3ccccc3)cc2c1Nc1ccc2[nH]ccc2c1 [Compound 215, 4-(1H-indol-5-ylamino)-2-(phenylethynyl)thieno[2,3-b]pyridine-5-carbonitrile]"
